We go through two molecules from patent US20140221414A1 (priority 2009, published 2014).

The conditions of data set [1]: oral 400 mg, healthy volunteers, cited from earlier work.
A short description of another data set: physchem. The class given is physicochemical. Conditions: thermodynamic from solid. From the text:
Another embodiment relates to various methods for screening and analyzing methods and preparations that are intended to enhance the dissolution of poorly soluble drugs. These analysis methods include dissolution studies, saturation solubility studies, wettability studies, permeation studies, X-ray diffraction studies etc.

Data set [2] has as its system MDCK (Mardin Darby Canine Kidney Cells) cells. Nature of the data set: Permeability study using MDCK cells in transwell plates. Type of data set: in vitro ADME. As to conditions: 10 μmolar apical, 37° C., 2 hours. The method, then:
Three well are to be used per sample. Plates are placed in shaking water bath at 37° C. for 2 hours. Take out 20 μl from apical and 100 μl from basolateral side for sample processing at […]. Lucifer Yellow is used as a marker to see the monolayer integrity of the cells. Propronalol is used as a permeability marker.
Relative area in apical remain 100% even after 2 hours.

A further data set relates to E. Coli. In words: Anti-microbial activity by cup plate / well plate method (zone of inhibition). The class given is cell-based. Conditions: 200 μl per well, 37° C., 24 hrs. The method, then:
The measurement of zone diameters estimates the susceptibility of bacteria to antimicrobial compounds.
Prepare a nutrient agar medium in distilled water and sterilize this media in autoclave at 121° C. for 15 min. Transfer this media aseptically in sterile petriplate, allow the media to solidify for few minutes. After solidification, add test micro-organism i.e. E. Coli (100 μl) in each plate and spread this culture with the help of spreader. Prepare the well in plate with the help of borer.

In the next data set the test system is Campylobacter jejuni. Conditions: cited from earlier work.
The subject of data set [3] is Escherichia coli Enteroaggregative. Conditions: 75 strains; cited from earlier work.
Data set [4] relates to Escherichia coli Enterotoxigenic. As to conditions: 97 strains; cited from earlier work.
The subject of a further data set is Helicobacter pylori. Conditions: 40 strains; MIC50 instead of MIC90; cited from earlier work.
Another data set deals with Salmonella species. As to conditions: 46 strains; cited from earlier work.
For a further data set, the system named is Shigella species. Conditions: 36 strains; cited from earlier work.
The next data set relates to Vibrio cholerae. Conditions: 403 strains; cited from earlier work.
Another data set relates to Yersinia enterocolitica. Conditions: 74 strains; cited from earlier work.
The test system of another data set is Other. As to conditions: 21 strains; cited from earlier work.

Values after ≈ are worked out from the molar mass of the structure shown. Read-outs that look alike come from different tables or passages of the source. A value given as a limit tells only on which side of the number the result lay.

For `CO[C@H]1/C=C/O[C@@]2(C)Oc3c(C)c(O)c4c(O)c(c5c(nc6cc(C)ccn65)c4c3C2=O)NC(=O)/C(C)=C\C=C\[C@H](C)[C@H](O)[C@@H](C)[C@@H](O)[C@@H](C)[C@H](OC(C)=O)[C@@H]1C` [14C-rifaximin], the “dose recovered in feces” value in data set [1] (almost entirely as unchanged drug) was “approximately 97%”. Moreover, in [1], the “dose recovered in the urine” value was 0.32%.

By solubility is commonly meant how much of the substance goes into solution per volume. With `CO[C@H]1/C=C/O[C@@]2(C)Oc3c(C)c(O)c4c(O)c(c5c(nc6cc(C)ccn65)c4c3C2=O)NC(=O)/C(C)=C\C=C\[C@H](C)[C@H](O)[C@@H](C)[C@@H](O)[C@@H](C)[C@H](OC(C)=O)[C@@H]1C` [rifaximin], the solubility in “physchem” (pH 6.8, aqueous buffer) is 10 µg/mL (≈ 12.7 µM); in the data set “physchem” (water), below 10 µg/mL. The “amount found in the basolateral side of the transwell (apparent permeability)” value in [2] is reported as “No detectable amount”. Moreover, the “area of zone of inhibition” value in the data set on E. Coli is reported as “very negligible”. The MIC90 was 32 µg/mL (≈ 40.7 µM) in the data set with Campylobacter jejuni (9 strains); 128 µg/mL (≈ 163 µM) in the data set on Campylobacter jejuni (54 strains); 32 µg/mL (≈ 40.7 µM) in data set [3]; 32 µg/mL (≈ 40.7 µM) in data set [4]; 64 µg/mL (≈ 81.4 µM) in the data set with Salmonella species; 64 µg/mL (≈ 81.4 µM) with Shigella species. The MIC90 was 4 µg/mL (≈ 5.09 µM) in the data set on Vibrio cholerae, 16 µg/mL (≈ 20.4 µM) in the data set with Yersinia enterocolitica and 4 µg/mL (≈ 5.09 µM) with Other. Besides, the MIC50 in the data set with Helicobacter pylori is 4 (MIC50) μg/ml.
